Results on two substances are retold here after US20040002441A1, “Recombination modulators and methods for producing and using the same” (priority 2000, published 2004).

Where no end group is shown, it is not given here.

Assay [1] has as its target restriction enzymes with unique sites in pUC19. Nature of the assay: Restriction enzyme assays, all enzymes tested. Format: biochemical. On the procedure:
(§1) Restriction enzyme assays. Restriction digests were performed as specified and the products were separated on 0.8% agarose gels electrophoresed at 80-90V in 1× Tris borate EDTA buffer. Gels were photographed, scanned and quantitated using NIH Image v.1.55, as recommended in the instruction manual.

Another assay concerns the target T1, vaccinia topoisomerase (Vaccinia virus, UniProt P68698).
T1 construct: made in house; host or cells: Escherichia coli BL21 infected with bacteriophage λCE6
Nature of the assay: Gel shift of noncovalent topoisomerase-DNA complex (60-bp duplex with CCCTT site). In kind it is binding. The note with it: 0.72 to 1.8 μM peptide. An excerpt:
To test whether the peptide interferes with the noncovalent association of topoisomerase with the DNA, we assayed the effects of the peptides on the binding of vaccinia topoisomerase to a radiolabeled 60-bp duplex DNA containing a single central CCCTT recognition site. In contrast to the suicide substrate, for which all bound enzymes are trapped in the covalent state, only about 20% of the fully double-stranded DNA molecules that are bound will be linked covalently to the protein (Wittschieben and Shuman, 1997).

The target in assay [2] is T2, bacteriophage λ Integrase (Int) (Escherichia phage lambda, UniProt P03700).
T2 sequence (P03700 1-356): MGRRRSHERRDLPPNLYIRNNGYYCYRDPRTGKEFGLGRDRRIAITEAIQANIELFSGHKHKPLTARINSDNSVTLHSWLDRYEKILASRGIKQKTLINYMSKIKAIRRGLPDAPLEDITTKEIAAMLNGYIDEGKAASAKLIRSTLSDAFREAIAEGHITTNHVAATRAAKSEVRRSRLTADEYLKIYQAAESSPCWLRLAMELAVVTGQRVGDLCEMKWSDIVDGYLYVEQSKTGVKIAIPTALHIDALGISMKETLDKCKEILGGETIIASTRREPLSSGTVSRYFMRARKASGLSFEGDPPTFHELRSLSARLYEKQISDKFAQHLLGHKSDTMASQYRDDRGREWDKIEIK
Put plainly: Formation of covalent protein-DNA complexes (CPDs) by Int. Format: biochemical. An excerpt: Int, like its relative tyrosine recombinases, makes transient covalent protein-DNA complexes (CPDs) during the cleavage stage of the recombination reaction. […] Since these complexes are the product of DNA cleavage by Int prior to strand exchange or ligation, we tested the effect of peptide KWWCRW on their formation. The peptide inhibited accumulation of both attL and attR CPDs by 65-75% (data not shown), supporting our model that KWWCRW blocks recombination by interfering with the cleavage step of the reaction.

Another assay addresses Nde I. Put plainly: Restriction enzyme assay on pUC19. Format: biochemical. The note with it: Nde I (CATATG). As to the method:
as §1

The target in another assay is T3, Hind III (Haemophilus influenzae, UniProt P43870).
T3 construct: purchased New England BioLabs
Put plainly: Restriction enzyme assay on pUC19. In kind it is biochemical. On the procedure: as §1

Another assay deals with T4, Pst I (Providencia stuartii, UniProt P00640).
T4 construct: purchased New England BioLabs
T4 sequence (P00640 1-326): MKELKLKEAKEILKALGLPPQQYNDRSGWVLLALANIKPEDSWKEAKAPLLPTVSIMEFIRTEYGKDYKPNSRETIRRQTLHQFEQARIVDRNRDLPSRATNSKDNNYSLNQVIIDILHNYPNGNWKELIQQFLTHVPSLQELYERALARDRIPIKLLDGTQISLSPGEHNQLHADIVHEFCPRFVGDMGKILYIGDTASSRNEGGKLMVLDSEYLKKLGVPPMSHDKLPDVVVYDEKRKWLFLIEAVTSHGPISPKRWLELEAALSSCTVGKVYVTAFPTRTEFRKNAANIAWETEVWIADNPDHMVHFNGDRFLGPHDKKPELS
Nature of the assay: Restriction enzyme assay on pUC19. In kind it is biochemical. As to the method: as §1

For a further assay, the target named is Xba I. Put plainly: Restriction enzyme assay on pUC19. In kind it is biochemical. The following applies: Xba I (TCTAGA). As to the method: as §1
For assay [3], the target named is T5, bacteriophage λ Integrase (Int) (Escherichia phage lambda, UniProt P03700). Nature of the assay: Top strand cleavage of phosphorothiolate-modified attL (attLS). Format: biochemical. The note with it: with Int, IHF, Xis and attR. As to the method: (§2) FIG. 18 depicts effect of peptide WKHYNY on DNA cleavage. A. Time course of resolution of excision HJs. HJs were isolated, and Int, IHF, and Xis were added in the presence or absence of peptide 52 (100 μM) and stopped at various timepoints (1, 5, 15, 30, 60, and 90 min). Absence of peptide, closed circles; presence of peptide, open squares. B. The extent of strand cleavage of attL. An attL site containing a phosphorothiolate modification at the point of top strand cleavage (attLS) was incubated with Int, IHF, and Xis, in the presence of attR and in the presence or absence of peptide WKHYNY. Absence of peptide, open squares; presence of peptides, closed diamonds.
In contrast, the peptide has little or no effect on the, rate of cleavage of the attL early intermediate under recombination conditions (FIG. 18B). We measured this by using attL substrates containing a bridging phosphorothiolate modification at the locus of top strand cleavage. This modification, developed by Burgin and Nash (1995), replaces a bridging oxygen atom in the DNA backbone with a sulfur atom. Upon cleavage, the covalent Int-DNA intermediate remains trapped because the sulfhydryl generated at the free 5′ end is a much poorer nucleophile of the phosphotyrosyl bond than the normal hydroxyl group (Burgin et al., 1995). […]

Assay [4] deals with T5, bacteriophage λ Integrase (Int). Nature of the assay: Resolution of isolated excision Holliday junctions by Int, IHF and Xis. In kind it is biochemical. The note with it: peptide 100 μM. On the procedure:
as §2
Holliday junctions can be resolved either in the “forward” direction to form recombinant products or in the “reverse” direction to re-form substrates. Synthetic HJs representing intermediates in the unidirectional reactions are preferentially resolved in the direction of products (Hsu and Landy, 1984; Franz and Landy, 1990, 1995). We wanted to determine whether HJs isolated in the presence of peptide behave similarly to the synthetic HJs. In addition, we wanted to analyze the processing of bent-L HJs. Recombination reactions were assembled in the presence of peptide WKHYNY, and protein-free HJs were isolated from SDS-containing gels, eluted, and precipitated. […]

As to KWWCRW-NH2 [Peptide 59, KWWCRW], the half-maximal inhibitory concentration (IC50) was around 40 µM in [1]; 37 µM against Nde I; 48 µM on Hind III; 44 µM against Pst I; 37 µM against Xba I. Also, the “effect on formation of the noncovalent topoisomerase-DNA complex” value on vaccinia topoisomerase is on record as “did not inhibit”. Further, in assay [2], the “inhibition of accumulation of attL and attR CPDs” value was 65-75%.
For the substance WKHYNY-NH2 [Peptide 52, WKHYNY], the “effect on first strand cleavage of attLS” value in assay [3] is “no influence on the kinetics or the amount of cleavage”. The “effect on rate of resolution of gel-isolated excision HJs” value in assay [4] is reported as “slowed the rate of cleavage”.
